Test results reported in patent US8476300B2, “Selective estrogen receptor modulator for the treatment of osteoarthritis” (Eli Lilly and Company, priority 2008, dated 2013).

Legend:
Ishikawa cells = experiment: Ishikawa cell proliferation assay (alkaline phosphatase readout; agonist and antagonist modes); assay type: cell-based; conditions: for agonist activity: agonist mode, compound alone, versus the response to tamoxifen
Procedure: Ishikawa Cell Proliferation Assay:
This assay measures cell proliferation (using an alkaline phosphatase readout) in both an agonist mode in the presence of a test compound alone, and in an antagonist mode in which the ability of a test compound to block estradiol stimulation of growth is measured.
After an overnight incubation, Ishikawa cells are rinsed with Dulbecco's Phosphate Buffered Saline (“D-PBS”) without Ca^+2 and Mg^+2, and trypsinized by a 3 minute incubation with 0.25% Trypsin/EDTA, phenol red-free. Cells are re-suspended in assay medium and adjusted to 250,000 cells/mL. Approximately 25,000 cells in a 100 μl media are added to flat-bottom 96 wells microculture plates and incubated at 37° C. in a 5% CO2 humidified incubator for 24 hours. The next day, serial dilutions of compounds are prepared in assay medium (at 6 times the final concentration in the assay). The assay is run in dual mode, agonist and antagonist modes.
For the agonist mode, plates receive 25 μL/well of assay medium followed by 25 μL/well of a diluted test compound (at 6× the final concentrations). For the antagonist mode, plates receive 25 μL/well of 6 nM 17 β-estradiol (“E2”) followed by 25 μL/well of a diluted test compound (at 6× the final concentrations). After an additional 48-hour incubation at 37° C. in a 5% CO2 humidified incubator, media is aspirated from wells and 100 μL fresh assay medium is added to each microculture. Serial dilutions of compounds are prepared and added to the cells as described above. After an additional 72 hour incubation at 37° C. in a 5% CO2 humidified incubator, the assay is quenched by removing media and rinsing plates twice in D-PBS. The plates are dried for 5 minutes and frozen at −70° C. for at least 1 hour. The plates are then removed from the freezer and allowed to thaw at room temperature. After a 20-minute incubation, plates are read on a spectophotometer at 405 nm.
The data are fitted using a 4 parameter fit model to derive EC50 (for agonist mode) or IC50 (for antagonist mode) values. For the antagonist mode, a % efficacy for each compound is calculated versus E2 (1 nM) alone. For the agonist mode, a % efficacy for each compound is calculated versus the response to tamoxifen. […] The average agonist activity of the compound of Example 1 alone was 17.7%±11.3% (n=4) (arithmetric mean±standard deviation). The values for the compound of Example 1 may be compared to 4-hydroxytamoxifen which generally results in >100% agonist activity.

ERα receptor = target: T1, ERα receptor (Homo sapiens, UniProt P03372); experiment: Estrogen receptor competition binding assay (3H-estradiol displacement), ERα; conditions: geometric mean±standard deviation, from IC50 by Cheng-Prusoff, read-out: Ki-α
T1 sequence (P03372 1-595): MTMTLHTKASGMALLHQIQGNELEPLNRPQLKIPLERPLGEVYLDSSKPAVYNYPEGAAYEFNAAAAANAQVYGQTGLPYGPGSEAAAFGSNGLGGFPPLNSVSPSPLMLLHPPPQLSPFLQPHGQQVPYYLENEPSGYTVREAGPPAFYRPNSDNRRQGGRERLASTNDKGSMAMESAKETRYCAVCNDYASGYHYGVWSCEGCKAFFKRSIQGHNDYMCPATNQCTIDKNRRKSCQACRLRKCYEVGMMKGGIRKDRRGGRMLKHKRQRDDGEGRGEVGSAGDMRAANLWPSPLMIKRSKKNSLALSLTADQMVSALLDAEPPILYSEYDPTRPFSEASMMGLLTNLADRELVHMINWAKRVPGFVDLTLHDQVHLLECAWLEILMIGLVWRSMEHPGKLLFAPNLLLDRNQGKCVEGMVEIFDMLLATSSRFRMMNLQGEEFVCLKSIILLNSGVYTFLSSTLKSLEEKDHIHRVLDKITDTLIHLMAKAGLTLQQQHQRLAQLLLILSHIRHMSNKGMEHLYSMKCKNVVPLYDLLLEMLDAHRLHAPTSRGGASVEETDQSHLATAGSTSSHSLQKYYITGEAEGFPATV
Procedure: (§1) Estrogen Receptor Binding Assay:
(§2) Compounds are tested for binding affinity to both estrogen receptor types (ERα and ERβ) by a competition binding assay that measures the compound's ability to displace ^3H-estradiol from the receptors. IC50 and Ki values for both receptor types can be calculated.
(§3) A competition binding assay is run in a buffer containing 50 mM HEPES buffering reagent, pH 7.5, 1.5 mM ethylenediaminetetraacetic acid (“EDTA”), 150 mM NaCl, 10% glycerol, 1 mg/mL ovalbumin and 5 mM dithiothreitol (“DTT”), using 0.025 μCi per well ^3H-Estradiol (NEN#NET517 at 118 Ci/mmol, 1 mCi/mL), 10 ng/well ERα or ERβ receptor. A test compound is added at 10 different concentrations. Non-specific binding is determined in the presence of 1 μM of estradiol (17 β-estradiol). The binding reaction (140 μL) is incubated for 4 hours at room temperature, then 70 μl of cold DCC buffer is added to each reaction (DCC buffer contains per 50 mL of assay buffer, 750 mg of charcoal and 250 mg of dextran). Plates are mixed 8 minutes on an orbital shaker at 4° C. […] After an incubation of 2.5 hours, the plates are read in a counter. […] The Kd for ^3H-Estradiol is determined by saturation binding to ERα and ERβ receptors. The IC50 values for test compounds are converted to Ki using the Cheng-Prusoff equation, and the Kd determined by saturation binding assay.

ERβ receptor = ERβ receptor (Homo sapiens, UniProt Q92731); experiment: Estrogen receptor competition binding assay (3H-estradiol displacement), ERβ; conditions: geometric mean±standard deviation, from IC50 by Cheng-Prusoff, read-out: Ki-β
Chain of ERβ receptor (Q92731 whole entry): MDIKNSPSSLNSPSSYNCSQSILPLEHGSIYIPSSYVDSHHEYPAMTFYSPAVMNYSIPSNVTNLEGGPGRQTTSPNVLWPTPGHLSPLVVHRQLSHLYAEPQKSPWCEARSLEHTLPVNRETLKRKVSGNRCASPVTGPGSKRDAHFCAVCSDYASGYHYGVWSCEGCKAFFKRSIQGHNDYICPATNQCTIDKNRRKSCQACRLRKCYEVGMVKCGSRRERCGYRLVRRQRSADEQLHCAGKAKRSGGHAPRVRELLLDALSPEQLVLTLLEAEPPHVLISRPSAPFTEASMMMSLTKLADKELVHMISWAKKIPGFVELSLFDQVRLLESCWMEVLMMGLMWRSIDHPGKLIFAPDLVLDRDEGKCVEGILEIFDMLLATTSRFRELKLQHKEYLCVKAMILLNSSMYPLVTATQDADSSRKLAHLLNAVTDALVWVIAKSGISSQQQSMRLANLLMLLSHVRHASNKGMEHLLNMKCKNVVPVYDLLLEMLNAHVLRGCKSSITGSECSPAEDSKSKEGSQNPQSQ
Procedure: as §1, §2, §3

[1] = system: immature rat uterus (estrogen-induced uterine weight); experiment: 3-Day immature rat uterus antagonist assay; assay type: in vivo; conditions: oral, 3 days, with EE2 0.1 mg/kg
Text: 3-Day Immature Rat Uterus Antagonist Assay:
This model for uterine antagonism utilizes immature (3 week old) female rats that are highly sensitive to estrogenic stimulation of the uterus given that their circulating estrogen levels are prepubertal. The uteri from immature rats are fully responsive to exogenous estrogen, yet are quiescent in the absence of exogenous estrogen. Administration of exogenous estrogen to immature rats produces a reliable elevation of uterine weight, which can be used to study uterine antagonist effects. The rats are treated with both estradiol and 4 different concentrations of a test compound for 3 days and then uterine wet weights are measured. […]
Uterine weight/body weight ratios (UWR) are calculated for each animal. The percent inhibition of the estrogen-induced response is then calculated by the following formula: percent inhibition=100×(UWRestrogen−UWRtest compound)/(UWRestrogen−UWRcontrol)
ED50 values are derived from a semi-log regression analysis of the linear aspect of the dose response curve. Both the UWR data and the percent inhibition data are statistically analyzed by one way analysis of variance (ANOVA) with post-hoc testing by Fisher's PLSD when indicated by a p<0.05.

OVX rat uterus = experiment: 4-Day OVX rat uterine agonist assay; assay type: in vivo
Procedure: 4-Day OVX Rat Uterine Agonist Assay:
Seventy-five day old rats are ovariectomized and treatment is started 14 days later when circulating estradiol levels have reached minimal levels. After 4 days of treatment with 3 doses of a test compound, (6 rats per group) body weight, uterine wet weight and uterine eosinophil peroxidase (EPO) activity are measured. Cholesterol levels are also measured to compare relative ability to lower cholesterol with other SERMs. If there is any question of uterine stimulation, histological examination will determine epithelial cell height.
A significant (>10% of the increase induced by estradiol @0.1 mg/kg) and dose-responsive increase in uterine EPO activity is used as an early indicator of potential uterine agonist activity. […] None of the groups dosed with the compound of Example 1 evidenced an increase in EPO activity that was >10% of that induced by estradiol at 0.1 mg/Kg. Significant, dose-related increases in uterine endometrial thickness have also been used as an early sign of potential SERM uterine agonist activity.

OVX/MCT animals = experiment: OVX/Meniscal tear model of OA; assay type: in vivo, rat
Procedure: The rat meniscal tear (MCT) model is a well-described model of OA in which joint damage and pain are induced by surgical intervention (transection of the medial meniscus) in one knee joint. In the standard MCT model using male rats, joint pathology develops progressively and is measured via joint histology at 3 weeks post-surgery.

pCTX-II = experiment: P-CTXII biomarker; assay type: in vivo
Text: pCTX-II is believed to be a useful biomarker reflecting efficacy relating to the treatment of OA. See for example, Garnero P et al Ann Rheum Dis 2003; 62:939-943; Mazieres B et al, Arthritis Rheum 2003; 48:5683

[2] = marker of cartilage type II collagen turnover; cited from earlier work
[3] = n=4, arithmetic mean±standard deviation

With 4-hydroxytamoxifen [reference compound] the agonist activity (Ishikawa cells; [3]) was greater than 100%.
`Cc1ccc(-c2ccc3cc(O)ccc3c2Oc2ccc(OCCN3CCCCC3)cc2)s1.Cl` [Example 1, 6-(5-methylthiophen-2-yl)-5-(4-(2-(piperidin-1-yl)ethoxy)phenoxy)naphthalen-2-ol hydrochloride] showed a Ki (ERα receptor) of 0.15 ± 0.22 nM, a Ki (ERβ receptor) of 0.2 ± 0.2 nM and an IC50 (Ishikawa cells; Homo sapiens, Ishikawa, antagonist mode, n=4, geometric mean±standard deviation, read-out: relative IC50) of 3.75 ± 1.71 nM. The agonist activity (Ishikawa cells; [3]) was 17.7%±11.3%, the antagonist efficacy (Ishikawa cells; antagonist mode, versus E2 (1 nM) alone, n=4, arithmetic mean±standard deviation) was 102%±8.4% and the “ED50 (inhibition of estrogen-induced uterine weight/body weight ratio)” value [1] was 0.053 mg/kg. For the same compound, the “increase in EPO activity relative to that induced by estradiol at 0.1 mg/Kg” value (OVX rat uterus; all dose groups) was “up to 10%”, the “uterine endometrial thickness, dose related increase vs OVX group” value (OVX rat uterus; doses up to 10 mg/kg) was “did not result in significant, dose related increases in uterine endometrial thickness” and the “uterine EPO activity, dose related increase vs OVX group” value (OVX rat uterus; doses up to 10 mg/kg, 4 days, Tukey Kramer p<0.05) was “no significant dose related increases in EPO activity”. The “doses with statistically significant pain reduction vs OVX/MCT group” value (OVX/MCT animals; OVX animals, meniscal tear) was no less than 1.0 mg/kg, the joint pain (OVX/MCT animals; OVX animals, meniscal tear) was “reduced pain in a dose-dependent fashion” and the “reduction in joint pain compared with 17α-ethynylestradiol” value (OVX/MCT animals; doses of 3 and 10 mg/kg) was “not statistically different from those induced by 17α-ethynylestradiol”. For the same compound, the “pCTX-II levels compared with 17α-ethynylestradiol treatment” value (pCTX-II; all doses) was “not statistically different from those resulting from treatment with 17α-ethynylestradiol”, the pCTX-II (pCTX-II; in vivo) was “significantly and dose-dependently reduced pCTX-II” and the melting point was 248.82 °C.
In the case of `COc1ccc2c(c1)OC(C)(C)[C@@H](c1ccccc1)[C@@H]2c1ccc(OCCN2CCCC2)cc1` [levormeloxifene], the “urinary levels of CTX-II” value [2] is listed as “significantly decrease the urinary levels of CTX-II”.
